Tests used:
[1] = Qualitative analysis of AAI and metabolites in bile of bile duct-cannulated rats; type: in vivo, F344 rats; conditions: 30 mg/kg AAI oral, bile collected 0–3 h, 3–6 h, 6–9 h, 9–12 h, qualitative UHPLC-Q-Exactive
Experimental: Ten 6-week-old F344 rats were divided into a control group (n = 2) and a treatment group (n = 8), with equal numbers of males and females in each group. During the experiment, rats were fasted and had access to water ad libitum. Rats in the control group were administered with 0.5% CMC-Na suspension via gastric gavage. For the treatment group, rats were administered with 30 mg/kg of AAI by the same route. Rats underwent bile duct cannulation for bile sample collection. Bile samples were collected at consecutive intervals of 0–3 h, 3–6 h, 6–9 h and 9–12 h after administration.
For each bile sample, a 200 μL aliquot of bile was mixed with an equal volume of a methanol/acetonitrile (1:1, v/v) solution. After vortexing for 2 min, the mixture was centrifuged at 13,200 rpm for 10 min. The precipitate was discarded, and the supernatant was dried under nitrogen gas. The dried residue was reconstituted in 80 μL of methanol, vortexed for 2 min, and centrifuged at 13,200 rpm for 15 min. The resulting supernatant was used for further analysis.
Ultra-high-performance liquid chromatography (UHPLC) coupled with a Q-Exactive orbitrap mass spectrometer (Thermo Fisher Scientific, San Jose, CA, USA) was used to analyzed the metabolites of AAI in rat bile. An ACQUITY UPLC BEH C18 column (2.1 mm × 50 mm, 1.7 μm, Waters, Milford, MA, USA) was employed for chromatographic separation. The mobile phase consisted of water containing 5 mmol/L ammonium formate/0.1% formic acid (A) and acetonitrile (B).
Metabolites in bile samples were analyzed using electrospray ionization (ESI) in both positive and negative ion modes. The spray voltage was set at 3500 V for positive mode and 3000 V for negative mode. The ion transfer tube temperature was maintained at 350 °C with a vaporizer temperature of 300 °C. The sheath gas and auxiliary gas flow rates were 35 Arb and 10 Arb. Full-scan MS data were acquired at a resolution of 35,000 within the mass range of m/z 100–1200. For MS/MS analysis, data-dependent acquisition (DDA) was performed at a resolution of 17,500 using high-energy collision dissociation (HCD). Post-acquisition data was imported into Compound Discoverer 2.1 software to identify AAI metabolites. Blank matrices were processed alongside samples to exclude the background interferences.

[2] = Stability of AAI in rat plasma samples (QC samples); type: in vitro ADME; conditions: n = 3
Experimental: A full validation of the bioanalytical method for the quantitative analysis of AAI in rat plasma was performed in inherence to the ICH M10 guideline. Selectivity, accuracy and precision, matrix effects, calibration curve and range, dilution integrity and stability were fully validated. The analyzed QCs included a lower limit of quantitation (LLOQ) sample, low QC (LQC), medium QC (MQC) and high QC (HQC). QCs of four concentration levels (LLOQ: 1 ng/mL; LQC: 3 ng/mL; MQC: 400 ng/mL; HQC: 800 ng/mL) were prepared by spiking AAI with blank plasma collected from 6 rats.
Stability evaluation was carried out by analyzing LQCs and HQCs after storage under different conditions. Freeze–thaw stability was assessed after 3 cycles of freezing and thawing. Short-term stability was tested by keeping the LQCs and HQCs on the bench top at room temperature for the same duration as the study samples. Stability of the analyte in processed samples was tested by placing the processed samples in an autosampler for 16 h. Long-term stability was assessed by storing LQCs and HQCs at −20 °C for 15 days. The mean concentration at each QC level should be within ±15% of the nominal concentration.

Caco-2 monolayers = conditions: cited from earlier work
[3] = Freeze–thaw stability (3 cycles), rat plasma, nominal conc. 3 ng/mL
[4] = Freeze–thaw stability (3 cycles), rat plasma, nominal conc. 800 ng/mL
[5] = Long-term stability (−20 °C, 15 days), rat plasma, nominal conc. 3 ng/mL
[6] = Long-term stability (−20 °C, 15 days), rat plasma, nominal conc. 800 ng/mL
[7] = Post-processing stability (processed samples in autosampler 16 h), nominal conc. 3 ng/mL
[8] = Post-processing stability (processed samples in autosampler 16 h), nominal conc. 800 ng/mL
[9] = Short-term stability (bench top, room temperature), rat plasma, nominal conc. 3 ng/mL
[10] = Short-term stability (bench top, room temperature), rat plasma, nominal conc. 800 ng/mL

COc1cccc2c1cc([N+](=O)[O-])c1c(C(=O)O)cc3c(c12)OCO3 [AAI, Aristolochic acid I]
detection in bile (biliary excretion) [1]: detected in bile collected during 0–3 h and 3–6 h intervals post-administration | Accuracy (%Dev) [2, 3]: 4.10 %Dev | Mean Calculated Conc. [2, 3]: 3.12 ng/mL | Accuracy (%Dev) [2, 4]: 1.30 %Dev | Mean Calculated Conc. [2, 4]: 810.42 ng/mL | Accuracy (%Dev) [2, 5]: 6.54 %Dev | Mean Calculated Conc. [2, 5]: 3.20 ng/mL | Accuracy (%Dev) [2, 6]: 4.71 %Dev | Mean Calculated Conc. [2, 6]: 837.66 ng/mL | Accuracy (%Dev) [2, 7]: −10.53 %Dev | Mean Calculated Conc. [2, 7]: 2.68 ng/mL | Accuracy (%Dev) [2, 8]: −11.83 %Dev | Mean Calculated Conc. [2, 8]: 705.33 ng/mL | Accuracy (%Dev) [2, 9]: 3.46 %Dev | Mean Calculated Conc. [2, 9]: 3.10 ng/mL | Accuracy (%Dev) [2, 10]: −2.99 %Dev | Mean Calculated Conc. [2, 10]: 776.07 ng/mL | passive diffusion ability across Caco-2 monolayers (Caco-2 monolayers): moderate passive diffusion ability

Reference: publication PMC12656546, “Enterohepatic Recirculation-Mediated Reabsorption of Aristolochic Acid I: Revealed by Toxicokinetics and Metabolite Identification in Rats” (Toxics, 2025)
